Data reported in patent US10064858B2, “Methods and compositions for treating bacterial infections with iron chelators” (THE UNITED STATES OF AMERICA, AS REPRESENTED BY THE …, priority 2011, dated 2018).
Where two headings read alike, the source gives them in different places.

How the values were obtained:
[1] = tested on: clinical isolates of A. baumannii; experiment: MIC for clinical isolates in RPMI (low iron) media (Table 4); type: cell-based; parameters: key to MIC of Iron Chelators: NG = no growth in table 4; conditions: for MIC: Acinetobacter baumannii
Experimental: […] […] Tests were performed in triplicate. MIC of iron chelators were determined for noscomial ESKAPE pathogens.
For a number of strains, the iron chelators produced no growth of bacteria (NG).

[2] = tested on: A. baumannii AB 19606, AB 17978; experiment: Checkerboard assay, chelator with antibiotic (FIC); type: cell-based
Source text: Drug interactions were initially evaluated with the “checkerboard” microdilution design, which provided a matrix of all drug combinations assayed in terms of fractions of the previously determined MIC. The checkerboard microdilution design is described in R. J. Tallarida, “Drug Synergism: Its Detection and Applications,” Journal of Pharmacology and Experimental Therapeutics, 865-872 (2001); and in R. L. White, et al., (1996), supra. FIGS. 39A and 39B show the wellplates having different concentrations of iron chelator and antibiotic, as labeled along the x-axis and y-axis. […] The checkerboard assay was used to asses other combinations of iron chelators and antibiotics. The fractional inhibitory concentration index (FIC), which was calculated as follows: FIC=(MIC A in combination/MIC A)+(MIC B in combination/MIC B). […] Blank spaces indicate concentrations not tested. […] Against the species PA PAO1 and PA 27853, all the antibiotics except for Ami.

AB5075 = experiment: Time-kill assay in M9 minimal media; type: cell-based, A. baumannii; conditions: 24 hours
Experimental: (§1) Reductions in colony forming units (CFU)/mL were determined over time (time-kill assay) after exposure to VK28 and deferiprone (DFP), the two iron chelators that performed best in MIC assays when compared to controls. To better represent the iron content found in the human body, MIC and time-kill assays were also determined in minimal media and tissue culture media. Time-Kill assays were performed as previously described in G. P. Neupane et al., “In vitro time-kill activities of ciprofloxacin alone and in combination with the iron chelator deferasirox against Vibrio vulnificus,” European Journal of Clinical Microbiology and Infectious Diseases, 407-410 (2010); and R. L. White, et al., “Comparison of Three Different In Vitro Methods of Detecting synergy: Time-Kill, Checkerboard, and E test,” Journal of Antimicrobial Agents and Chemotherapy, 1914-1918 (1996). Initial inocula, for example 1×10^6 CFU/mL or 1×10^7 CFU/mL were challenged with iron chelator with and/or without an antibiotic. Cells were allowed to grow in CAMHB at 37° C. for 24 hours. Time-kill results were analyzed by determining the change in log 10 numbers of CFU/ml at 0, 6, and 24 h, compared to counts at 0 h. Antimicrobials were considered bactericidal at the lowest concentration that reduced the size of the original inoculum by >3 log 10 CFU/ml (99.9%) over each of the time periods and were considered bacteriostatic if the inoculum's size was reduced by 0 to <3 log 10 CFU/ml.
The untreated sample (♦) had greater than 1×10^9 CFU/mL after 9 hours that was sustained at 24 hours.

E. coli EC35218 = experiment: Time-kill assay in CAMHB; type: cell-based; conditions: 1×MIC and 2×MIC VK28; CAMHB
Experimental: as §1
In this example, time-kill assays were performed as described in Example 9 against different multi-drug resistant bacteria, namely E. coli and MRSA.
In this example, time-kill assays were performed as described in Example 9 using ApoL1 as the iron chelator against two different E. coli strains. […] Time-kill results were analyzed by determining the change in log 10 numbers of CFU/mL at 6 and 24 hours.
In this example, time-kill assays were performed as described in Example 9 using Apo6619 as the iron chelator in combination with Rifampin against E. coli 35718. […] Time-kill results were analyzed by determining the change in log 10 numbers of CFU/mL at 0, 5 and 24 hours.

[3] = tested on: multi-drug resistant bacterial species; experiment: Time kill method, synergy with rifampin (summary); type: cell-based
Experimental: as §1

[4] = tested on: multi-drug resistant bacterial species; experiment: Checkerboard, synergy with rifampin (summary); type: cell-based
Source text: Drug interactions were initially evaluated with the “checkerboard” microdilution design, which provided a matrix of all drug combinations assayed in terms of fractions of the previously determined MIC. The checkerboard microdilution design is described in R. J. Tallarida, “Drug Synergism: Its Detection and Applications,” Journal of Pharmacology and Experimental Therapeutics, 865-872 (2001); and in R. L. White, et al., (1996), supra. FIGS. 39A and 39B show the wellplates having different concentrations of iron chelator and antibiotic, as labeled along the x-axis and y-axis.
The checkerboard assay was used to asses other combinations of iron chelators and antibiotics. The fractional inhibitory concentration index (FIC), which was calculated as follows: FIC=(MIC A in combination/MIC A)+(MIC B in combination/MIC B). Interaction was defined as synergistic if the FIC was <1.0, preferably <0.5, no interaction if the FIC was >1.0 and <4.0, and antagonistic if the FIC was >4.0.
The assay was run against the multi-drug resistant bacterial species AB 19606, AB 17978, KP ndm, PA PAO1, PA 27853, EC 35718, and EC 43888. Blank spaces indicate concentrations not tested. […] Against the species PA PAO1 and PA 27853, all the antibiotics except for Ami.

With OCCN1CCN(Cc2ccc(O)c3ncccc23)CC1 [VK28, 5-(4-(2-hydroxyethyl)piperazin-1-ylmethyl)-8-hydroxyquinoline] as the molecule, how does the “MIC of Iron Chelators” value ([1]; AB967) read?
The value was “NG”.

And the “MIC of Iron Chelators” value ([1]; AB2828)?
Its value is “NG”.

And the “MIC of Iron Chelators” value ([1]; AB3340)?
The value was “NG”.

And the “MIC of Iron Chelators” value ([1]; AB3560)?
Its value is “NG”.

What about the “MIC of Iron Chelators” value ([1]; AB3927) of the same molecule?
Its value is “NG”.

What about the MIC ([1]; AB3638, read-out: MIC of Iron Chelators) of the same molecule?
The MIC was 8 µg/mL.

What about the MIC ([1]; AB3785, read-out: MIC of Iron Chelators) of the same molecule?
The MIC was 8 µg/mL.

And the MIC ([1]; AB3806, read-out: MIC of Iron Chelators)?
The MIC was 8 µg/mL.

And the MIC ([1]; AB3917, read-out: MIC of Iron Chelators)?
The MIC was 4 µg/mL.

What about the MIC ([1]; AB4025, read-out: MIC of Iron Chelators) of the same molecule?
Its MIC is 8 µg/mL.

And the MIC ([1]; AB4026, read-out: MIC of Iron Chelators)?
Its MIC is 8 µg/mL.

And the MIC ([1]; AB4027, read-out: MIC of Iron Chelators)?
Its MIC is 8 µg/mL.

What about the MIC ([1]; AB4052, read-out: MIC of Iron Chelators) of the same molecule?
The MIC was 8 µg/mL.

And the MIC ([1]; AB4269, read-out: MIC of Iron Chelators)?
Its MIC is 8 µg/mL.

And the MIC ([1]; AB4448, read-out: MIC of Iron Chelators)?
Its MIC is 8 µg/mL.

And the MIC ([1]; AB4456, read-out: MIC of Iron Chelators)?
The MIC was 8 µg/mL.

What about the MIC ([1]; AB4490, read-out: MIC of Iron Chelators) of the same molecule?
The MIC was 8 µg/mL.

And the MIC ([1]; AB4498, read-out: MIC of Iron Chelators)?
Its MIC is 8 µg/mL.

What about the MIC ([1]; AB4795, read-out: MIC of Iron Chelators) of the same molecule?
The MIC was 4 µg/mL.

What about the MIC ([1]; AB4857, read-out: MIC of Iron Chelators) of the same molecule?
Its MIC is 8 µg/mL.

And the MIC ([1]; AB4878, read-out: MIC of Iron Chelators)?
The MIC was 8 µg/mL.

What about the MIC ([1]; AB4932, read-out: MIC of Iron Chelators) of the same molecule?
The MIC was 8 µg/mL.

What about the MIC ([1]; AB4957, read-out: MIC of Iron Chelators) of the same molecule?
Its MIC is 8 µg/mL.

And the MIC ([1]; AB4991, read-out: MIC of Iron Chelators)?
The MIC was 8 µg/mL.

What about the MIC ([1]; AB5001, read-out: MIC of Iron Chelators) of the same molecule?
The MIC was 8 µg/mL.

And the MIC ([1]; AB5075, read-out: MIC of Iron Chelators)?
Its MIC is 8 µg/mL.

What about the MIC ([1]; AB5197, read-out: MIC of Iron Chelators) of the same molecule?
Its MIC is 4 µg/mL.

And the MIC ([1]; AB5256, read-out: MIC of Iron Chelators)?
The MIC was 8 µg/mL.

What about the MIC ([1]; AB5674, read-out: MIC of Iron Chelators) of the same molecule?
Its MIC is 8 µg/mL.

What about the MIC ([1]; AB5711, read-out: MIC of Iron Chelators) of the same molecule?
The MIC was 8 µg/mL.

What about the FIC ([2]; AB 17978, in combination with Amikacin) of the same molecule?
Its FIC is 1.25.

And the FIC ([2]; AB 17978, in combination with Cefotaxine)?
Its FIC is 0.75.

And the FIC ([2]; AB 17978, in combination with Colisitin (Colistin))?
The FIC was 0.75.

What about the FIC ([2]; AB 17978, in combination with Doxycycline) of the same molecule?
Its FIC is 1.25.

What about the FIC ([2]; AB 17978, in combination with Rifampin) of the same molecule?
The FIC was 0.75.

What about the FIC ([2]; AB 19606, in combination with Amikacin) of the same molecule?
Its FIC is 1.25.

What about the FIC ([2]; AB 19606, in combination with Cefotaxine) of the same molecule?
The FIC was 1.25.

What about the FIC ([2]; AB 19606, in combination with Colisitin (Colistin)) of the same molecule?
Its FIC is 0.75.

And the FIC ([2]; AB 19606, in combination with Doxycycline)?
Its FIC is 2.25.

What about the FIC ([2]; AB 19606, in combination with Rifampin) of the same molecule?
The FIC was 1.25.

What about the “time-kill course of CFU/ml” value (AB5075; 0.5×MIC) of the same molecule?
Its value is “slight inhibitory effect on the CFU/ml over the 24 hours”.

What about the “time-kill course of CFU/ml” value (AB5075; 1×MIC) of the same molecule?
The value was “slight inhibitory effect on the CFU/ml over the 24 hours”.

What about the “time-kill course of CFU/ml” value (AB5075; 2×MIC) of the same molecule?
The value was “slight inhibitory effect on the CFU/ml over the 24 hours”.

And the time-kill effect (E. coli EC35218)?
Its time-kill effect is “bacteriostatic (considered bacteriostatic if the inoculum's size was reduced by 0 to <3 log 10 CFU/ml)”.

What about the “synergy with rifampin, time kill method” value [3] of the same molecule?
Its value is “strong synergy”.

What about the “synergy with rifampin, checkerboard” value [4] of the same molecule?
The value was “moderate degrees of synergy”.
